Source: publication PMC4186413, “Identification of metabolic pathways and enzyme systems involved in the in vitro human hepatic metabolism of dronedarone, a potent new oral antiarrhythmic drug” (Pharmacology Research & Perspectives, 2014)

How the values were obtained:
CYP3A4 = assay: Contribution of CYP3A4 to hepatocyte clearance (ketoconazole inhibitory effect); assay type: in vitro ADME, human; settings: for Effect of ketoconazole on metabolism in hepatocytes: 5 μmol/L drug; for fm CYP3A4, Mean ± SD: mean of hepatocyte preparations
Method: (§1) Experiments were performed in 48-well plastic plates coated with rat tail Collagen type I. Plates were seeded with 0.16 × 10^5 hepatocytes per well in a final volume of 0.2 mL and incubated at 37°C under a 95% humidified air and 5% CO2 atmosphere. After 3 h during which cells were allowed to attach, the medium was renewed with 0.1 mL serum-free medium. Then, the investigated drug or metabolic probe(s) were added directly to the incubation medium in the absence or the presence of inhibitors such as either ketoconazole as a specific and potent CYP3A inhibitor (3 μmol/L final concentration), clorgyline (0.25 μmol/L final concentration) as a potent MAO-A inhibitor or ABT as a potent but nonselective CYP isoforms inhibitor (1 mmol/L final concentration) (Fabre et al. [1988]; Bourrié et al. [1996]; Klieber et al. [2008]). Regardless of the final concentration investigated, the final solvent (DMSO) concentration never exceeded 0.2% (v/v).
(§2) To determine the metabolism of the different compounds (metabolic probes, dronedarone, N-debutyl-dronedarone, propanoic acid-dronedarone, phenol-dronedarone, and C-dealkyl-dronedarone), kinetic studies were performed over 0–24 h. For each time point, 0.1 mL of acetonitrile was added to the specific well for protein precipitation, and both extracellular medium and the cell fraction were scraped together. Cell extracts were transferred to a glass tube and stored at −20°C until analysis. Before analysis, cell homogenates were sonicated for a few seconds, homogenized and centrifuged at 6000 g for 10 min. Supernatant fluids were then analyzed for the different drugs and their specific metabolites.
(§3) The fraction metabolized (fm) by MAO, CYP3A or total CYPs was determined using the following equation: [drawing 3] where: kei is the elimination rate constant (expressed in h^−1) in the presence of the inhibitor.
(§4) The kinetics of drug disappearance were investigated using four different cryopreserved human hepatocyte preparations in primary cultures following incubation with either dronedarone or its metabolites at a concentration of 5 μmol/L. Incubations were performed either in the absence, that is control conditions, or in the presence of enzyme system inhibitors such as 3 μmol/L ketoconazole (specific and potent inhibitor of CYP3A4/5), 1 mmol/L ABT (a potent and […] inhibitor of total CYPs), or 0.25 μmol/L clorgyline (a potent MAO-A inhibitor) (Dorris [1982]). Kinetic studies were performed over 24 h.

MAO = molecular target: T1, MAO (Homo sapiens, UniProt P21397); assay: Contribution of MAO to hepatocyte clearance (clorgyline inhibitory effect); assay type: in vitro ADME; settings: for Effect of clorgyline on metabolism in hepatocytes: 5 μmol/L drug; for fm MAO, Mean ± SD: mean of hepatocyte preparations
T1 construct: host or cells: cryopreserved human hepatocytes in primary culture
T1 sequence (P21397 1-527): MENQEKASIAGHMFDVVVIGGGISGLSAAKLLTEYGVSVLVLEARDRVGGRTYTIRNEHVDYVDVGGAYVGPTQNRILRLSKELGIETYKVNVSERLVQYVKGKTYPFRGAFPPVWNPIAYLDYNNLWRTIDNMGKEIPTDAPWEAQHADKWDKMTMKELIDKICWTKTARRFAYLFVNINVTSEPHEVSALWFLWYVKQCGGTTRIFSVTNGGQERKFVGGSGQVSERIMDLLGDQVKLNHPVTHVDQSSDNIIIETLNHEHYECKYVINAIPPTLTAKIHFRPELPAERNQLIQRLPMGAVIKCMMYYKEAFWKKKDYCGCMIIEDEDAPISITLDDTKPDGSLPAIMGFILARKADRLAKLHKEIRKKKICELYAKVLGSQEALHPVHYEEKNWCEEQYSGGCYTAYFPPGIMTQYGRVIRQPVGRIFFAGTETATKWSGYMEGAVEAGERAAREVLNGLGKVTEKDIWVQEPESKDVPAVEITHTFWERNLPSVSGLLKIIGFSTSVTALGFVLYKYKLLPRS
Method: as §1, §2, §3, §4

[1] = system: UGT1A1, UGT1A3, UGT1A4, UGT1A6, UGT1A7, UGT1A8, UGT1A9, UGT1A10, UGT2B4, UGT2B7, UGT2B15, and UGT2B17; assay: Glucuronidation by the panel of recombinant human UGT isoforms; assay type: in vitro ADME; settings: 1 mg/mL, 5 μmol/L, 30 min, UDPGA
Description: Recombinant human CYPs (Supersomes™; BD Gentes, Woburn, MA: CYP1A1, CYP1A2, CYP2A6, CYP2B6, CYP2C8, CYP2C9, CYP2C18, CYP2C19, CYP2D6, CYP2E1, CYP3A4 and CYP3A5), FMOs (Supersomes™: FMO1, FMO3, FMO5), MAOs (Supersomes™: MAO-A and MAO-B), and UGTs (Supersomes™: UGT1A1, UGT1A3, UGT1A4, UGT1A6, UGT1A7, UGT1A8, UGT1A9, UGT1A10, UGT2B4, UGT2B7, UGT2B15, and UGT2B17) expressed in baculovirus-infected insect cells and control microsomes from insect cells infected with wild-type baculovirus were all obtained from BD Gentest (Woburn, MA).
For glucuronidation pathways, the assay mixture was composed of human liver microsomes (2 mg·mL^−1) or microsomes of baculovirus-infected cells expressing human UGTs (1 mg·mL^−1), uridine 5′-diphosphoglucuronic acid (UDPGA) (3 mmol/L), 100 mmol/L Tris HCl (pH 7.4) containing 5 mmol/L MgCl2 and 5 μmol/L of the investigated compound dissolved in DMSO in a final volume of 500 μL. The final concentration of DMSO in the reaction mixture was less than 1% (v/v). Initial rate conditions with respect to time and protein concentration for both the disappearance of unchanged drug and the formation of respective metabolites were established in preliminary studies. The microsomal mixture was first incubated for 10 min at 4°C in the presence of alamethicin (0.125 mg·mL^−1), then the reaction was initiated by addition of UDPGA (30 mmol/L aqueous solution) to achieve a final concentration of 3 mmol/L for UGT-dependent reactions, incubated at 37°C and stopped after 0–30 min by addition of one volume of ice-cold acetonitrile. […]
Figure 7 Contribution of individual UGTs to the glucuronidation of propanoic acid-dronedarone and phenol-dronedarone. […] Unchanged drugs were quantified by LC/MS-MS relative to the synthetic references as described in Materials and Methods. Data are expressed as the percentage of glucuronidation.

Total CYPs = assay: Contribution of total CYPs to hepatocyte clearance (1-aminobenzotriazole inhibitory effect); assay type: in vitro ADME, human; settings: for Effect of ABT on metabolism in hepatocytes (words): 1 mmol/L ABT, 5 μmol/L drug; for fm Total CYPs, Mean ± SD: mean of hepatocyte preparations
Method: as §1, §2, §3, §4

[2] = HU-1358, 0.25 μmol/L clorgyline
[3] = IVT-IBG, 0.25 μmol/L clorgyline
[4] = BD-91, 1 mmol/L 1-aminobenzotriazole
[5] = BD-296, 1 mmol/L 1-aminobenzotriazole
[6] = HU-1358, 1 mmol/L 1-aminobenzotriazole
[7] = IVT-IBG, 1 mmol/L 1-aminobenzotriazole

SMILES | Effect of ketoconazole on metabolism in hepatocytes (CYP3A4; 3 μmol/L ketoconazole) | fm CYP3A4 (CYP3A4; BD-91, 3 μmol/L ketoconazole) [%] | fm CYP3A4 (CYP3A4; BD-296, 3 μmol/L ketoconazole) [%] | fm CYP3A4 (CYP3A4; HU-1358, 3 μmol/L ketoconazole) [%] | fm CYP3A4 (CYP3A4; IVT-IBG, 3 μmol/L ketoconazole) [%] | fm CYP3A4, Mean ± SD (CYP3A4; 3 μmol/L ketoconazole) [%] | Effect of clorgyline on metabolism in hepatocytes (MAO; 0.25 μmol/L clorgyline) | fm MAO (MAO; BD-91, 0.25 μmol/L clorgyline) [%] | fm MAO (MAO; BD-296, 0.25 μmol/L clorgyline) [%] | fm MAO (MAO; [2]) [%] | fm MAO (MAO; [3]) [%] | fm MAO, Mean ± SD (MAO; 0.25 μmol/L clorgyline) [%] | Glucuronidation by recombinant human UGT isoforms [1] | Effect of ABT on metabolism in hepatocytes (words) (Total CYPs) | fm Total CYPs (Total CYPs; [4]) [%] | fm Total CYPs (Total CYPs; [5]) [%] | fm Total CYPs (Total CYPs; [6]) [%] | fm Total CYPs (Total CYPs; [7]) [%] | fm Total CYPs, Mean ± SD (Total CYPs; 1 mmol/L 1-aminobenzotriazole) [%] | Effect of ABT on metabolism in hepatocytes (words) (Total CYPs; listed as phenol-dronedarone)
CCCCNCCCOc1ccc(C(=O)c2c(CCCC)oc3ccc(NS(C)(=O)=O)cc23)cc1 [N-debutyl-dronedarone] | no inhibitory effect | 7 | 4 | 8 | 0 | 5 ± 3 | potently inhibited | 88 | 80 | 86 | 83 | 84 ± 3 | No glucuronidation was observed | moderately decreased its metabolic rate | 67 | 48 | 51 | 54 | 55 ± 7 | –
CCCCc1oc2ccc(NS(C)(=O)=O)cc2c1C(=O)c1ccc(OCCCN(CCCC)CCCC)cc1.Cl [Dronedarone, N-(2-Butyl-3-(4-(3-(dibutylamino)propoxy)benzoyl)-5-benzofuranyl)methanesulfonamide, hydrochloride] | predominant inhibitory effect | 95 | 95 | 84 | 80 | 89 ± 7 | minor inhibitory effect | 18 | – | 23 | 43 | 29 ± 14 | No glucuronidation was observed | predominant inhibitory effect | 98 | 99 | 98 | 95 | 98 ± 2 | –
CCCCN(CCCC)CCCOc1ccc(C(=O)O)cc1 [C-dealkyl-dronedarone] | no effect | – | – | – | – | – | no effect | – | – | – | – | – | No glucuronidation was observed | no effect | – | – | – | – | – | –

Second part, the compound after the results:

Effect of ketoconazole on metabolism in hepatocytes (CYP3A4; 3 μmol/L ketoconazole) | fm CYP3A4 (CYP3A4; BD-91, 3 μmol/L ketoconazole) [%] | fm CYP3A4 (CYP3A4; BD-296, 3 μmol/L ketoconazole) [%] | fm CYP3A4 (CYP3A4; HU-1358, 3 μmol/L ketoconazole) [%] | fm CYP3A4 (CYP3A4; IVT-IBG, 3 μmol/L ketoconazole) [%] | fm CYP3A4, Mean ± SD (CYP3A4; 3 μmol/L ketoconazole) [%] | Effect of clorgyline on metabolism in hepatocytes (MAO; 0.25 μmol/L clorgyline) | fm MAO (MAO; BD-91, 0.25 μmol/L clorgyline) [%] | fm MAO (MAO; BD-296, 0.25 μmol/L clorgyline) [%] | fm MAO (MAO; [2]) [%] | fm MAO (MAO; [3]) [%] | fm MAO, Mean ± SD (MAO; 0.25 μmol/L clorgyline) [%] | Glucuronidation by recombinant human UGT isoforms [1] | Effect of ABT on metabolism in hepatocytes (words) (Total CYPs) | fm Total CYPs (Total CYPs; [4]) [%] | fm Total CYPs (Total CYPs; [5]) [%] | fm Total CYPs (Total CYPs; [6]) [%] | fm Total CYPs (Total CYPs; [7]) [%] | fm Total CYPs, Mean ± SD (Total CYPs; 1 mmol/L 1-aminobenzotriazole) [%] | Effect of ABT on metabolism in hepatocytes (words) (Total CYPs; listed as phenol-dronedarone) | SMILES
very minor inhibitory effect | 36 | 41 | 33 | 34 | 36 ± 3 | no inhibitory effect | 12 | 0 | 0 | 0 | 3 ± 5 | – | potently inhibited | 87 | 92 | 91 | 89 | 90 ± 3 | – | CCCCc1oc2ccc(NS(C)(=O)=O)cc2c1C(=O)c1ccc(OCCC(=O)O)cc1 [Propanoic acid-dronedarone]
did not contribute | – | – | – | – | – | did not contribute | – | – | – | – | – | – | did not contribute | – | – | – | – | – | no significant effect | CCCCc1oc2ccc(NS(C)(=O)=O)cc2c1C(=O)c1ccc(O)cc1 [Phenol-dronedarone]
